# Results reported in PMC12445744, “Molecular docking to homology models of human and Trypanosoma brucei ERK8 that identified ortholog-specific inhibitors” (PLOS Neglected Tropical Diseases, 2025).
# Values joined by “and” are separate entries in the source; they are usually repeats but may differ in a detail not shown here. Equal values may be shown once.
# Target: T1, HsERK8 (Homo sapiens, UniProt Q8TD08)
# T1 construct: plasmid pGEX2T expressing the full-length hERK8 coding region; made in house; host or cells: Escherichia coli Rosetta 2 (DE3)
# T1 sequence (Q8TD08 1-544): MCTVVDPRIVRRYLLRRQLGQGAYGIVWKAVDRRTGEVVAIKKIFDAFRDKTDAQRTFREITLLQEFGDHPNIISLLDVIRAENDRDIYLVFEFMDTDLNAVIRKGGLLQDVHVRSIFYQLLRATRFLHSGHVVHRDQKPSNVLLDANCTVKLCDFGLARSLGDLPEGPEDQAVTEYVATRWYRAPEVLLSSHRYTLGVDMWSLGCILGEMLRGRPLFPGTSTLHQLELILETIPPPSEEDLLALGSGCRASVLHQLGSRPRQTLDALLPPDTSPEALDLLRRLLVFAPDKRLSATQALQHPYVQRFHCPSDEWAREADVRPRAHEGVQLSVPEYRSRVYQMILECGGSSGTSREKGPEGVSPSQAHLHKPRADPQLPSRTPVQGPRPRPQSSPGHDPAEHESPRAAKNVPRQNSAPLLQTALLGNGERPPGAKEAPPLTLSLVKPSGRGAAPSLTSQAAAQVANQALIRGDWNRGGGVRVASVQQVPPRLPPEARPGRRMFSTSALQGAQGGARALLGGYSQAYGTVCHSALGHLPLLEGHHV
# Assay: Luciferase-based kinase inhibition assay (ATP luminescence), GST-tagged HsERK8 with MBP substrate
# Type: biochemical
# Details: for raw luminescence, HsERK8: replicate wells; for Luminescence Raw (Kinase-Glo): HsERK8
structure (smiles),measurement,setting,value
C[C@]12C=CC(=O)C=C1CC[C@@H]1[C@@H]2[C@@H](O)C[C@@]2(C)[C@H]1CC[C@]2(O)C(=O)CO [Prednisolone],IC50,,300 µM
same,"raw luminescence, HsERK8","0.00015 mM compound, sheet ADP_ATP_glo081724 (3)",2318.43 RLU and 2379.5 RLU and 1359.39 RLU
same,"raw luminescence, HsERK8","0.00015 mM compound, sheet Kinase_glo 08142024 (2)",11527 RLU and 11136 RLU and 8980.24 RLU
same,"raw luminescence, HsERK8","0.00015 mM compound, sheet Kinase_glo_080924_IFPS (2)",3541.75 RLU and 3582.18 RLU and 3076.85 RLU
same,"raw luminescence, HsERK8","0.00061 mM compound, sheet ADP_ATP_glo081724 (3)",2825.09 RLU and 2949.5 RLU and 2422.48 RLU
same,"raw luminescence, HsERK8","0.00061 mM compound, sheet Kinase_glo 08142024 (2)",11527 RLU and 11503.8 RLU and 9669.24 RLU
same,"raw luminescence, HsERK8","0.00061 mM compound, sheet Kinase_glo_080924_IFPS (2)",3770.83 RLU and 3829.22 RLU and 3330.64 RLU
same,"raw luminescence, HsERK8","0.00244 mM compound, sheet ADP_ATP_glo081724 (3)",3720.8 RLU and 3505.92 RLU and 3191.52 RLU
same,"raw luminescence, HsERK8","0.00244 mM compound, sheet Kinase_glo 08142024 (2)",11998.3 RLU and 11782.7 RLU and 9967.25 RLU
same,"raw luminescence, HsERK8","0.00244 mM compound, sheet Kinase_glo_080924_IFPS (2)",4143.65 RLU and 4112.2 RLU and 3658.53 RLU
same,"raw luminescence, HsERK8","0.00977 mM compound, sheet ADP_ATP_glo081724 (3)",3641.63 RLU and 3797.7 RLU and 3386.04 RLU
same,"raw luminescence, HsERK8","0.00977 mM compound, sheet Kinase_glo 08142024 (2)",11620 RLU and 11670.7 RLU and 9100.71 RLU
same,"raw luminescence, HsERK8","0.00977 mM compound, sheet Kinase_glo_080924_IFPS (2)",4774.74 RLU and 5053.23 RLU and 4529.94 RLU
same,"raw luminescence, HsERK8","0.03906 mM compound, sheet ADP_ATP_glo081724 (3)",4824.6 RLU and 4808.77 RLU and 4191.27 RLU
same,"raw luminescence, HsERK8","0.03906 mM compound, sheet Kinase_glo 08142024 (2)",13839.2 RLU and 14168.9 RLU and 11317.8 RLU
same,"raw luminescence, HsERK8","0.03906 mM compound, sheet Kinase_glo_080924_IFPS (2)",7209.85 RLU and 6169.43 RLU and 7796.61 RLU
same,"raw luminescence, HsERK8","0.15625 mM compound, sheet ADP_ATP_glo081724 (3)",6885.18 RLU and 7183.74 RLU and 7394.1 RLU
same,"raw luminescence, HsERK8","0.15625 mM compound, sheet Kinase_glo 08142024 (2)",27241.9 RLU and 27273.6 RLU and 25587 RLU
same,"raw luminescence, HsERK8","0.15625 mM compound, sheet Kinase_glo_080924_IFPS (2)",10574.2 RLU and 11234.5 RLU and 10315.9 RLU
same,"raw luminescence, HsERK8","0.62500 mM compound, sheet ADP_ATP_glo081724 (3)",8751.23 RLU and 9074.68 RLU and 6998.27 RLU
same,"raw luminescence, HsERK8","0.62500 mM compound, sheet Kinase_glo 08142024 (2)",32595.4 RLU and 32278.4 RLU and 37446.9 RLU
same,"raw luminescence, HsERK8","0.62500 mM compound, sheet Kinase_glo_080924_IFPS (2)",11504.5 RLU and 12982.8 RLU and 12069.3 RLU
same,"raw luminescence, HsERK8","2.50000 mM compound, sheet ADP_ATP_glo081724 (3)",11083.2 RLU and 11176 RLU and 9323.49 RLU
same,"raw luminescence, HsERK8","2.50000 mM compound, sheet Kinase_glo 08142024 (2)",34732.1 RLU and 34810.3 RLU and 30135.3 RLU
same,"raw luminescence, HsERK8","2.50000 mM compound, sheet Kinase_glo_080924_IFPS (2)",16242.2 RLU and 17136.1 RLU and 14690.3 RLU
same,"raw luminescence, HsERK8","10.00000 mM compound, sheet ADP_ATP_glo081724 (3)",12580.6 RLU and 13211.7 RLU and 13399.4 RLU
same,"raw luminescence, HsERK8","10.00000 mM compound, sheet Kinase_glo 08142024 (2)",37851.6 RLU and 37726.9 RLU and 37092.9 RLU
same,"raw luminescence, HsERK8","10.00000 mM compound, sheet Kinase_glo_080924_IFPS (2), signal = ATP left",19715.5 RLU and 19196.1 RLU and 19703.2 RLU
same,Luminescence Raw (Kinase-Glo),"inhibitor 0.00976562 mM, sheet Sil_Pred3, read 3",88068.9 and 93660.9 and 91592.3
same,Luminescence Raw (Kinase-Glo),"inhibitor 0.0195312 mM, sheet Sil_Pred3, read 3",91367.4 and 97331.9 and 97175
same,Luminescence Raw (Kinase-Glo),"inhibitor 0.0390625 mM, sheet Sil_Pred3, read 3",94347.3 and 94052.1 and 92142.9
same,Luminescence Raw (Kinase-Glo),"inhibitor 0.078125 mM, sheet Sil_Pred3, read 3",98578.2 and 105295 and 104564
same,Luminescence Raw (Kinase-Glo),"inhibitor 0.15625 mM, sheet Sil_Pred3, read 3",97978.5 and 103671 and 102378
same,Luminescence Raw (Kinase-Glo),"inhibitor 0.3125 mM, sheet Sil_Pred3, read 3",103442 and 105117 and 104861
same,Luminescence Raw (Kinase-Glo),"inhibitor 0.625 mM, sheet Sil_Pred3, read 3",118041 and 120665 and 116088
same,Luminescence Raw (Kinase-Glo),"inhibitor 0.00976562, sheet Sil_Pred1, read 1",100407 and 106564 and 102910
same,Luminescence Raw (Kinase-Glo),"inhibitor 0.00976562, sheet Sil_Pred2, read 2",90625.3 and 98037.5 and 95030.3
same,Luminescence Raw (Kinase-Glo),"inhibitor 0.0195312, sheet Sil_Pred1, read 1",105846 and 111118 and 110378
same,Luminescence Raw (Kinase-Glo),"inhibitor 0.0195312, sheet Sil_Pred2, read 2",95809.4 and 101447 and 100168
same,Luminescence Raw (Kinase-Glo),"inhibitor 0.0390625, sheet Sil_Pred1, read 1",108782 and 106859 and 106809
same,Luminescence Raw (Kinase-Glo),"inhibitor 0.0390625, sheet Sil_Pred2, read 2",97258.4 and 97956.1 and 97225.8
same,Luminescence Raw (Kinase-Glo),"inhibitor 0.078125, sheet Sil_Pred1, read 1",114996 and 120390 and 121203
same,Luminescence Raw (Kinase-Glo),"inhibitor 0.078125, sheet Sil_Pred2, read 2",101568 and 107854 and 109541
same,Luminescence Raw (Kinase-Glo),"inhibitor 0.15625, sheet Sil_Pred1, read 1",112780 and 119367 and 115572
same,Luminescence Raw (Kinase-Glo),"inhibitor 0.15625, sheet Sil_Pred2, read 2",101289 and 108375 and 104275
same,Luminescence Raw (Kinase-Glo),"inhibitor 0.3125, sheet Sil_Pred1, read 1",120905 and 121070 and 122162
same,Luminescence Raw (Kinase-Glo),"inhibitor 0.3125, sheet Sil_Pred2, read 2",107913 and 110173 and 110911
same,Luminescence Raw (Kinase-Glo),"inhibitor 0.625 (mM per sheet Pred3), sheet Kinase-Glo802124_Sil_Pred1, read 1, triplicate wells",138550 and 138736 and 130936
same,Luminescence Raw (Kinase-Glo),"inhibitor 0.625, sheet Sil_Pred2, read 2",122997 and 124612 and 121493
